Measurements as given in patent US11185531B2, “Arginine methyltransferase inhibitors and uses thereof” (Epizyme, Inc., priority 2013, dated 2021).

Assays:
[1] = molecular target: T1, human PRMT6 (Homo sapiens, UniProt Q96LA8); assay: PRMT6 Biochemical Assay (3H-SAM Flashplate, peptide substrate); conditions: 30 min preincubation
T1 construct: Flag-PRMT6-His was eluted with 200 ug/ml FLAG peptide in the same buffer; made in house; host or cells: HEK 293F cells (BacMam baculovirus, pFastBacMam)
Excerpt: Peptide representative of human histone H4 residues 36-50 was synthesized with an N-terminal linker-affinity tag motif and a C-terminal amide cap by 21st Century Biochemicals. The peptide was purified by high-performance liquid chromatography (HPLC) to greater than 95% purity and confirmed by liquid chromatography mass spectrometry (LC-MS). The sequence was Biot-Ahx-[…]-amide and contained a monomethylated lysine at position 44 (SEQ ID NO:5).
Full-length human PRMT6 (NM_018137.2) transcript clone was amplified from an HEK 293 cDNA library, incorporating a flanking 5′ sequence encoding a FLAG tag ([…]) (SEQ ID NO:6) fused directly to Ser 2 of PRMT6 and a 3′ sequence encoding a hexa His sequence (HHHHHH) fused directly to Asp 375. The amplified gene was subcloned into pFastBacMam (Viva Biotech).
Column was washed with 20 mM imidazole in the same buffer and Flag-PRMT6-His was eluted with 150 mM imidazole. Pooled fractions were dialysed against buffer Ni-A and further purified by anti-flag M2 affinity chromatography. Flag-PRMT6-His was eluted with 200 ug/ml FLAG peptide in the same buffer. Pooled fractions were dialysed in 20 mM Tris, 150 mM NaCl, 10% glycerol and 5 mM 3-mercaptoethanol, pH 7.8. The purity of recovered protein was 95%.
General Procedure for PRMT6 Enzyme Assays on Peptide Substrates.
The assays were all performed in a buffer consisting of 20 mM Bicine (pH=7.6), 1 mM TCEP, 0.005% BSG, and 0.002% Tween 20, prepared on the day of use. Compounds in 100% DMSO (1 ul) were spotted into a polypropylene 384-well V-bottom plates (Greiner) using a Platemate Plus outfitted with a 384-channel head (Thermo Scientific). DMSO (1 ul) was added to Columns 11, 12, 23, 24, rows A-H for the maximum signal control and 1 ul of SAH, a known product and inhibitor of PRMT6, was added to columns 11, 12, 23, 24, rows I-P for the minimum signal control. A cocktail (40 ul) containing the PRMT6 enzyme was added by Multidrop Combi (Thermo-Fisher). The compounds were allowed to incubate with PRMT6 for 30 min at room temperature, then a cocktail (10 ul) containing SAM and peptide was added to initiate the reaction (final volume=51 ul). The final concentrations of the components were as follows: PRMT6 was 1 nM, ^3H-SAM was 200 nM, non-radiolabeled SAM was 250 nM, peptide was 75 nM, SAH in the minimum signal control wells was 1 mM, and the DMSO concentration was 2%. The assays were stopped by the addition of non-radiolabeled SAM (10 ul) to a final concentration of 400 uM, which dilutes the ^3H-SAM to a level where its incorporation into the peptide substrate is no longer detectable. 50 ul of the reaction in the 384-well polypropylene plate was then transferred to a 384-well Flashplate and the biotinylated peptides were allowed to bind to the streptavidin surface for at least 1 hour before being washed once with 0.1% Tween20 in a Biotek ELx405 plate washer. The plates were then read in a PerkinElmer TopCount plate reader to measure the quantity of ^3H-labeled peptide bound to the Flashplate surface, measured as disintegrations per minute (dpm) or alternatively, referred to as counts per minute (cpm).
(§1) Where dpm=disintegrations per minute, cmpd=signal in assay well, and min and max are the respective minimum and maximum signal controls.
(§2) Where top and bottom are the normally allowed to float, but may be fixed at 100 or 0 respectively in a 3-parameter fit. The Hill Coefficient normally allowed to float but may also be fixed at 1 in a 3-parameter fit. Y is the % inhibition and X is the compound concentration.

[2] = molecular target: T2, human PRMT1 (Homo sapiens, UniProt Q99873); assay: PRMT1 Biochemical Assay (3H-SAM Flashplate, peptide substrate); conditions: 30 min preincubation
T2 construct: GST-tagged PRMT1; made in house; host or cells: High Five insect cells (baculovirus)
T2 sequence (Q99873 with tags, fused parts or gaps): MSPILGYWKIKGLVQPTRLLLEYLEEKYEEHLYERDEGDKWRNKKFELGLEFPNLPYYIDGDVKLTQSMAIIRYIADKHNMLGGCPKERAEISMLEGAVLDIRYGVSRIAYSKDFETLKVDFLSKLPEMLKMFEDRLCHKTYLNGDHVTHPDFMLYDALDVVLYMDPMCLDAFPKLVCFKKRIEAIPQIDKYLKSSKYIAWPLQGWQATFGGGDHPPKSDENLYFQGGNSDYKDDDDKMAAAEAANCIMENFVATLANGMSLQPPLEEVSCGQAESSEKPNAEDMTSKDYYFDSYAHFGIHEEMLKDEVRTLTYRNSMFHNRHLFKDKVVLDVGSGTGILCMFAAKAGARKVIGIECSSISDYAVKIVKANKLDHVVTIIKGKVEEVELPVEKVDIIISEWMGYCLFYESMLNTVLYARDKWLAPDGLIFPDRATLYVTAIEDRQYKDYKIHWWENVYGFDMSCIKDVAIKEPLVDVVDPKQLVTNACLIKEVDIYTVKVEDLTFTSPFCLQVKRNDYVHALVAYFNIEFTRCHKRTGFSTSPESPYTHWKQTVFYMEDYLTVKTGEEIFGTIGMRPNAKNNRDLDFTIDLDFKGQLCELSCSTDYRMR
Excerpt: (§3) Peptide representative of human histone H4 residues 36-50 was synthesized with an N-terminal linker-affinity tag motif and a C-terminal amide cap by 21st Century Biochemicals. The peptide was purified by high-performance liquid chromatography (HPLC) to greater than 95% purity and confirmed by liquid chromatography mass spectrometry (LC-MS). The sequence was Biot-Ahx-[…]-amide (SEQ ID NO.: 1).
Full-length human PRMT1 isoform 1 (NM_001536.5) transcript clone was amplified from an HEK 293 cDNA library, incorporating flanking 5′ sequence encoding a FLAG tag ([…]) (SEQ ID NO:2) fused directly to Met 1 of PRMT1. The amplified gene was subcloned into pFastBacI (Life Technologies) modified to encode an N-terminal GST tag and a TEV cleavage sequence
GST-tagged PRMT1 was eluted with 50 mM Tris, 2 mM glutathione, pH 7.8, dialysed in buffer A and concentrated to 1 mg/mL. The purity of recovered protein was 73%. Reference: Wasilko, D. J. and S. E. Lee: “TIPS: titerless infected-cells preservation and scale-up” Bioprocess J., 5 (2006), pp. 29-32.
General Procedure for PRMT1 Enzyme Assays on Peptide Substrates.
The assays were all performed in a buffer consisting of 20 mM Bicine (pH=7.6), 1 mM TCEP, 0.005% BSG, and 0.002% Tween 20, prepared on the day of use. Compounds in 100% DMSO (1 ul) were spotted into a polypropylene 384-well V-bottom plates (Greiner) using a Platemate Plus outfitted with a 384-channel head (Thermo Scientific). DMSO (1 ul) was added to Columns 11, 12, 23, 24, rows A-H for the maximum signal control and 1 ul of SAH, a known product and inhibitor of PRMT1, was added to columns 11, 12, 23, 24, rows I-P for the minimum signal control. A cocktail (40 ul) containing the PRMT1 enzyme was added by Multidrop Combi (Thermo-Fisher). The compounds were allowed to incubate with PRMT1 for 30 min at room temperature, then a cocktail (10 ul) containing SAM and peptide was added to initiate the reaction (final volume=51 ul). The final concentrations of the components were as follows: PRMT1 was 0.5 nM, ^3H-SAM was 200 nM, non-radiolabeled SAM was 1.5 uM, peptide was 20 nM, SAH in the minimum signal control wells was 1 mM, and the DMSO concentration was 2%. The assays were stopped by the addition of non-radiolabeled SAM (10 ul) to a final concentration of 300 uM, which dilutes the ^3H-SAM to a level where its incorporation into the peptide substrate is no longer detectable. 50 ul of the reaction in the 384-well polypropylene plate was then transferred to a 384-well Flashplate and the biotinylated peptides were allowed to bind to the streptavidin surface for at least 1 hour before being washed once with 0.1% Tween20 in a Biotek ELx405 plate washer. The plates were then read in a PerkinElmer TopCount plate reader to measure the quantity of ^3H-labeled peptide bound to the Flashplate surface, measured as disintegrations per minute (dpm) or alternatively, referred to as counts per minute (cpm).
as §1, §2

[3] = tested on: mono-methyl arginine in RKO cells; assay: RKO Methylation Assay, In Cell Western for mono-methyl arginine; assay type: cell-based; conditions: Homo sapiens, 72 hours, percent activation of mono-methyl arginine signal
Excerpt: RKO adherent cells were purchased from ATCC (American Type Culture Collection), Manassas, Va., USA. DMEM/Glutamax medium, penicillin-streptomycin, heat inactivated fetal bovine serum, 0.05% trypsin and D-PBS were purchased from Life Technologies, Grand Island, N.Y., USA. Odyssey blocking buffer, 800 CW goat anti-rabbit IgG (H+L) antibody, and Licor Odyssey infrared scanner were purchased from Licor Biosciences, Lincoln, Nebr., USA. Mono-methyl arginine antibody was purchased from Cell Signaling Technology, Danvers, Mass., USA. Methanol was purchased from VWR, Franklin, Mass., USA. 10% Tween 20 was purchased from KPL, Inc., Gaithersburg, Md., USA. DRAQ5 was purchased from Biostatus Limited, Leicestershire, UK.
RKO adherent cells were maintained in growth medium (DMEM/Glutamax medium supplemented with 10% v/v heat inactivated fetal bovine serum and 100 units/mL penicillin-streptomycin) and cultured at 37° C. under 5% CO2.
Cell Treatment, in Cell Western (ICW) for Detection of Mono-Methyl Arginine and DNA Content.
RKO cells were seeded in assay medium at a concentration of 20,000 cells per mL to a poly-D-lysine coated 384 well culture plate (BD Biosciences 356697) with 50 μL per well. Compound (100 nL) from a 96-well source plate was added directly to 384 well cell plate. Plates were incubated at 37° C., 5% CO2 for 72 hours. After three days of incubation, plates were brought to room temperature outside of the incubator for ten minutes and blotted on paper towels to remove cell media. 50 μL of ice cold 100% methanol was added directly to each well and incubated for 30 min at room temperature. After 30 min, plates were transferred to a Biotek EL406 plate washer and washed 2 times with 100 μL per well of wash buffer (IX PBS). Next 60 μL per well of Odyssey blocking buffer (Odyssey Buffer with 0.1% Tween 20 (v/v)) were added to each plate and incubated 1 hour at room temperature. Blocking buffer was removed and 20 μL per well of primary antibody was added (mono-methyl arginine diluted 1:200 in Odyssey buffer with 0.1% Tween 20 (v/v)) and plates were incubated overnight (16 hours) at 4° C. Plates were washed 5 times with 100 μL per well of wash buffer. Next 20 μL per well of secondary antibody was added (1:200 800 CW goat anti-rabbit IgG (H+L) antibody, 1:1000 DRAQ5 (Biostatus limited) in Odyssey buffer with 0.1% Tween 20 (v/v)) and incubated for 1 hour at room temperature. The plates were washed 5 times with 100 μL per well wash buffer then 2 times with 100 μL per well of water. Plates were allowed to dry at room temperature then imaged on the Licor Odyssey machine which measures integrated intensity at 700 nm and 800 nm wavelengths. Both 700 and 800 channels were scanned.
First, the ratio for each well was determined by:
Each plate included fourteen control wells of DMSO only treatment (minimum activation) as well as fourteen control wells for maximum activation treated with 20 μM of a reference compound. The average of the ratio values for each control type was calculated and used to determine the percent activation for each test well in the plate. Reference compound was serially diluted three-fold in DMSO for a total of nine test concentrations, beginning at 20 μM. Percent activation was determined and EC30 curves were generated using triplicate wells per concentration of compound.

[4] = molecular target: T3, human PRMT8 (Homo sapiens, UniProt Q9NR22); assay: PRMT8 Biochemical Assay (3H-SAM Flashplate, peptide substrate); conditions: 30 min preincubation
T3 construct: Full-length human PRMT8 (NM_019854.4) isoform 1 transcript clone; GST (N, cleaved yes); made in house; host or cells: E. coli BL21(DE3) Gold
T3 sequence (Q9NR22 whole entry, canonical isoform): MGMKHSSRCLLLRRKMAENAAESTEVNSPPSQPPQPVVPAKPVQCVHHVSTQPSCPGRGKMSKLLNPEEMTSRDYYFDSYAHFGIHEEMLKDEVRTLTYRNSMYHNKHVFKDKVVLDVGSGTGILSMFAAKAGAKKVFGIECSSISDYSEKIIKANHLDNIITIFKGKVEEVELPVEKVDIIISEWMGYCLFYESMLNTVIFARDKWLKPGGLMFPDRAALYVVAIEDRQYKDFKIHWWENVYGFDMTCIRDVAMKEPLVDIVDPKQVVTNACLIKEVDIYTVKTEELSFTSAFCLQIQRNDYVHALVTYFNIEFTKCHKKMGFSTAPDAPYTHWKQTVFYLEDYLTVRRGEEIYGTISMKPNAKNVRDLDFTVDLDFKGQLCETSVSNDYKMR
Excerpt: as §3, with “31-45” for “36-50”, “NO:8).” for “NO.: 1).”
The resulting construct encodes an N-terminal GST tag and a thrombin cleavage sequence
GST-tagged PRMT8 was eluted with 50 mM Tris, 2 mM glutathione, pH 7.8. Pooled fractions were cleaved by thrombin (10 U) and dialysed in buffer A. GST was removed by reloading the cleaved protein sample onto glutathione sepharose column and PRMT8 was collected in the flow-through fractions. PRMT8 was purified further by ceramic hydroxyapatite chromatography. The column was washed with 50 mM phosphate buffer, 100 mM NaCl, 5% glycerol, 5 mM 3-mercaptoethanol, pH 7.8 and PRMT8 was eluted by 100 mM phosphate in the same buffer. Protein was concentrated and buffer was exchanged to 50 mM Tris, 300 mM NaCl, 10% glycerol, 5 mM β-mercaptoethanol, pH 7.8 by ultrafiltration. The purity of recovered protein was 89%.
General Procedure for PRMT8 Enzyme Assays on Peptide Substrates.
The assays were all performed in a buffer consisting of 20 mM Bicine (pH=7.6), 1 mM TCEP, 0.005% BSG, and 0.002% Tween 20, prepared on the day of use. Compounds in 100% DMSO (1 ul) were spotted into a polypropylene 384-well V-bottom plates (Greiner) using a Platemate Plus outfitted with a 384-channel head (Thermo Scientific). DMSO (1 ul) was added to Columns 11, 12, 23, 24, rows A-H for the maximum signal control and 1 ul of SAH, a known product and inhibitor of PRMT8, was added to columns 11, 12, 23, 24, rows I-P for the minimum signal control. A cocktail (40 ul) containing the PRMT8 enzyme was added by Multidrop Combi (Thermo-Fisher). The compounds were allowed to incubate with PRMT8 for 30 min at room temperature, then a cocktail (10 ul) containing ^3H-SAM and peptide was added to initiate the reaction (final volume=51 ul). The final concentrations of the components were as follows: PRMT8 was 1.5 nM, ^3H-SAM was 50 nM, non-radiolabeled SAM was 550 nM, peptide was 150 nM, SAH in the minimum signal control wells was 1 mM, and the DMSO concentration was 2%. The assays were stopped by the addition of non-radiolabeled SAM (10 ul) to a final concentration of 400 uM, which dilutes the ^3H-SAM to a level where its incorporation into the peptide substrate is no longer detectable. 50 ul of the reaction in the 384-well polypropylene plate was then transferred to a 384-well Flashplate and the biotinylated peptides were allowed to bind to the streptavidin surface for at least 1 hour before being washed once with 0.1% Tween20 in a Biotek ELx405 plate washer. The plates were then read in a PerkinElmer TopCount plate reader to measure the quantity of ^3H-labeled peptide bound to the Flashplate surface, measured as disintegrations per minute (dpm) or alternatively, referred to as counts per minute (cpm).
as §1, §2

T1 sequence (Q96LA8 with tags, fused parts or gaps): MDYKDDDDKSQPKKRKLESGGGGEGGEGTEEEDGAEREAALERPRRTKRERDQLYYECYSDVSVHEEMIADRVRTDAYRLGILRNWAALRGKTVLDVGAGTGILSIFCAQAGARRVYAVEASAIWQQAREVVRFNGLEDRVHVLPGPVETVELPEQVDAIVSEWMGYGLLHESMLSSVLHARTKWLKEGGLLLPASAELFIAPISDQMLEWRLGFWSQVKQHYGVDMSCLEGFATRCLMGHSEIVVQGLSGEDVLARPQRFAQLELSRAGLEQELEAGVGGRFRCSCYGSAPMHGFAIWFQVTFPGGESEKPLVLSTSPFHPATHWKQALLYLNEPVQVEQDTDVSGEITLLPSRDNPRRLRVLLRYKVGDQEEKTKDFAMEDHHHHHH

SMILES | IC50 [1] [µM] | IC50 [2] [µM] | EC30 [3] [µM] | IC50 [4] [µM]
CN(CCN)Cc1c[nH]nc1C1CC1 [Compound 12] | 1.01 to 3 | 1.01 to 3 |  | 
CN(CCN)Cc1c[nH]nc1C(C)(C)C [Compound 27] | 1.01 to 3 |  | > 12 | 
CNCCN(C)Cc1c[nH]nc1C1CCN(C(=O)CC(C)C)CC1 [Compound 40, 3-methyl-1-(4-(4-((methyl(2-(methylamino)ethyl)amino)methyl)-1H-pyrazol-3-yl)piperidin-1-yl)butan-1-one] | < 0.1 |  |  | 0.101 to 1
CN(CCN)Cc1c[nH]nc1C1CCC(N2CCOCC2)CC1 (centres unmarked) [Compound 43, N^1-methyl-N^1-((3-(4-morpholinocyclohexyl)-1H-pyrazol-4-yl)methyl)ethane-1,2-diamine] | < 0.1 |  | < 3 | 
